Results taken from US11053239B2, “Compounds as BLC-2-selective apoptosis-inducing agents” (Fochon Pharmaceuticals, Ltd., priority 2017, dated 2021).
Like-named read-outs stand apart in the source and are kept apart here.

Legend:
[1] = tested on: RS4; 11 cells; assay: Cell proliferation assay (MTS), RS4; 11 cells; format: cell-based; conditions: RS4, 11 (ATCC CRL-1873) cell proliferation, 30000 cells/well, 72 h, MTS, mechanism-based readout of Bcl-2 inhibition, read-out: RS4, 11 IC50
Method in brief: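 RS4;11 (30000 cells/well, 72 h) and DOHH2 (5000 cells/well, 120 h) cells in RPMI-1640/10% FBS, treated at 37 °C with compound at 1.5–10000 nM final. Viability by MTS (2 h, SDS stop), absorbance 490 nm minus 650 nm reference; IC50 fitted.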

[2] = tested on: DOHH2 cells; assay: Cell proliferation assay (MTS), DOHH2 cells; format: cell-based; conditions: DOHH2 (DSMZ ACC 47) cell proliferation, 5000 cells/well, 120 h, MTS, mechanism-based readout of Bcl-2 inhibition, read-out: DOHH2 IC50
Source text: MTS testing kit was purchased from Promega. The RPMI-1640, Fetal bovine serum and Penicillin-Streptomycin were purchased from Gibco. Dimethyl sulfoxide (DMSO) was purchased from Sigma.
To investigate whether a compound is able to inhibit the activity of Bcl-2 in cells, a mechanism-based assay using DOHH2 (DSMZ No.® ACC 47) and RS4; 11 (ATCC® CRL-1873™) cell was developed. In this assay, inhibition of Bcl-2 was detected by the inhibition of DOHH2 and RS4; 11 cells proliferation. DOHH2 and RS4; 11 cells were cultured in culture flasks to 40-80% confluence in RPMI-1640 plus 10% fetal bovine serum. Cells were collected and plated onto 96-well plates at desired cell density (DOHH2: 5000 cells/well; RS4; 11: 30000 cells/well). Plates were incubated overnight at 37° C., with 5% CO2 to adhere. Compounds were added to the plates, and the final compound concentrations were 10000, 3333, 1111, […], 124, 41, 14, 4.6 and 1.5 nM. Plates plated with DOHH2 or RS4; 11 cells were placed at 37° C., with 5% CO2 for 120 h (DOHH2) or 72 h (RS4; 11) respectively. 20 μl MTS/100 μl medium mixture solution were added to each well and incubate the plates for exactly 2 hours. The reaction was stopped by adding 25 μl 10% SDS per well. Measure absorbance at 490 nm and 650 nm (reference wavelength). ICso was calculated using GraphPad Prism 5.0.

Molecule	IC50 ([1]; Homo sapiens, RS4-11, 72 h) [nM]	IC50 ([2]; Homo sapiens, DOHH-2, 120 h) [nM]	IC50 [1] [nM]	IC50 [2] [nM]
CN=S1(=O)CCN(C[C@H](C)Nc2ccc(S(=O)(=O)NC(=O)c3ccc(N4CCN(CC5=C(c6ccc(Cl)cc6)CC(C)(C)CC5)CC4)cc3Oc3cnc4[nH]ccc4c3)cc2[N+](=O)[O-])CC1 [Example 7, (S)-2-((1H-pyrrolo[2,3-b]pyridin-5-yl)oxy)-4-(4-((4′-chloro-5,5-dimethyl-3,4,5,6-tetrahydro-[1,1′-biphenyl]-2-yl)methyl)piperazin-1-yl)-N-((4-((1-(1-(methylimino)-1-oxido-1λ^6-thiomorpholino)propan-2-yl)amino)-3-nitrophenyl)sulfonyl)benzamide]	55	111		
CCOC(=O)N=S1(=O)CCN(C[C@H](C)Nc2ccc(S(=O)(=O)NC(=O)c3ccc(N4CCN(CC5=C(c6ccc(Cl)cc6)CC(C)(C)CC5)CC4)cc3Oc3cnc4[nH]ccc4c3)cc2[N+](=O)[O-])CC1 [Example 72, ethyl (S)-(4-(2-((4-(N-(2-((1H-pyrrolo[2,3-b]pyridin-5-yl)oxy)-4-(4-((4′-chloro-5,5-dimethyl-3,4,5,6-tetrahydro-[1,1′-biphenyl]-2-yl)methyl)piperazin-1-yl)benzoyl)sulfamoyl)-2-nitrophenyl)amino)propyl)-1-oxido-1λ^6-thiomorpholin-1-ylidene) carbamate]	68	119		
CC1(C)CCC(CN2CCN(c3ccc(C(=O)NS(=O)(=O)c4cnc(NCC5CCC(N=S(C)(C)=O)CC5)c([N+](=O)[O-])c4)c(Oc4cnc5[nH]ccc5c4)c3)CC2)=C(c2ccc(Cl)cc2)C1 (centres unmarked) [Example 52, 2-((1H-pyrrolo[2,3-b]pyridin-5-yl)oxy)-4-(4-((4′-chloro-5,5-dimethyl-3,4,5,6-tetrahydro-[1,1′-biphenyl]-2-yl)methyl)piperazin-1-yl)-N-((6-(((4-((dimethyl(oxo)-λ^6-sulfanylidene)amino)cyclohexyl)methyl)amino)-5-nitropyridin-3-yl)sulfonyl) benzamide]	2	29		
2-((1H-pyrrolo[2,3-b] pyridin-5-yl)oxy)-4-(4-((4′- chloro-5,5-dimethyl-3,4,5,6- tetrahydro-[1,1′-biphenyl]-2-yl) methyl)piperazin-1-yl)- N-((4-((2-(4-((dimethyl(oxo)-λ^6- sulfanylidene) amino)piperidin-1-yl)ethyl) amino)-3-nitrophenyl)sulfonyl) benzamide [Example 98]			2	176
CCN=S1(=O)CCN(CC[C@H](C)Nc2ccc(S(=O)(=O)NC(=O)c3ccc(N4CCN(CC5=C(c6ccc(Cl)cc6)CC(C)(C)CC5)CC4)cc3Oc3cnc4[nH]ccc4c3)cc2S(=O)(=O)C(F)(F)F)CC1 [Example 87, (S)-2-((1H-pyrrolo[2,3-b]pyridin-5-yl)oxy)-4-(4-((4′-chloro-5,5-dimethyl-3,4,5,6-tetrahydro-[1,1′-biphenyl]-2-yl)methyl)piperazin-1-yl)-N-((4-((4-(1-(ethylimino)-1-oxido-1λ^6-thiomorpholino)butan-2-yl)amino)-3-((trifluoromethyl)sulfonyl)phenyl)sulfonyl) benzamide]			145	266
CC(=O)N=S1(=O)CCN(CC[C@H](C)Nc2ccc(S(=O)(=O)NC(=O)c3ccc(N4CCN(CC5=C(c6ccc(Cl)cc6)CC(C)(C)CC5)CC4)cc3Oc3cnc4[nH]ccc4c3)cc2S(=O)(=O)C(F)(F)F)CC1 [Example 89, (S)-2-((1H-pyrrolo[2,3-b]pyridin-5-yl)oxy)-N-((4-((4-(1-(acetylimino)-1-oxido-1λ^6-thiomorpholino)butan-2-yl)amino)-3-((trifluoromethyl)sulfonyl)phenyl)sulfonyl)-4-(4-((4′-chloro-5,5-dimethyl-3,4,5,6-tetrahydro-[1,1′-biphenyl]-2-yl)methyl)piperazin-1-yl)benzamide]	53	112		
C[C@@H](CN1CCP(C)(=O)CC1)Nc1ccc(S(=O)(=O)NC(=O)c2ccc(N3CCN(CC4=C(c5ccc(Cl)cc5)CC(C)(C)CC4)CC3)cc2Oc2cnc3[nH]ccc3c2)cc1S(=O)(=O)C(F)(F)F [Example 49, (S)-2-((1H-pyrrolo[2,3-b]pyridin-5-yl)oxy)-4-(4-((4′-chloro-5,5-dimethyl-3,4,5,6-tetrahydro-[1,1′-biphenyl]-2-yl)methyl)piperazin-1-yl)-N-((4-((1-(4-methyl-4-oxido-1,4-azaphosphinan-1-yl)propan-2-yl)amino)-3-((trifluoromethyl)sulfonyl)phenyl)sulfonyl)benzamide]	54	107		
CC(C)C(=O)N=S1(=O)CCN(CC[C@H](C)Nc2ccc(S(=O)(=O)NC(=O)c3ccc(N4CCN(CC5=C(c6ccc(Cl)cc6)CC(C)(C)CC5)CC4)cc3Oc3cnc4[nH]ccc4c3)cc2[N+](=O)[O-])CC1 [Example 82, (S)-2-((1H-pyrrolo[2,3-b]pyridin-5-yl)oxy)-4-(4-((4′-chloro-5,5-dimethyl-3,4,5,6-tetrahydro-[1,1′-biphenyl]-2-yl)methyl)piperazin-1-yl)-N-((4-((4-(1-(isobutyrylimino)-1-oxido-1λ^6-thiomorpholino)butan-2-yl)amino)-3-nitrophenyl)sulfonyl)benzamide]	10	18		

The next lines start with results.

IC50 ([1]; Homo sapiens, RS4-11, 72 h) [nM]	Molecule	IC50 ([2]; Homo sapiens, DOHH-2, 120 h) [nM]	IC50 [1] [nM]	IC50 [2] [nM]
12	CC(=O)N=S1(=O)CCN(CCNc2ccc(S(=O)(=O)NC(=O)c3ccc(N4CCN(CC5=C(c6ccc(Cl)cc6)CC(C)(C)CC5)CC4)cc3Oc3cnc4[nH]ccc4c3)cc2[N+](=O)[O-])CC1 [Example 37, 2-((1H-pyrrolo[2,3-b]pyridin-5-yl)oxy)-N-((4-((2-(1-(acetylimino)-1-oxido-1λ^6-thiomorpholino)ethyl)amino)-3-nitrophenyl)sulfonyl)-4-(4-((4′-chloro-5,5-dimethyl-3,4,5,6-tetrahydro-[1,1′-biphenyl]-2-yl)methyl)piperazin-1-yl) benzamide]	228		
56	COC(=O)N=S1(=O)CCC(CNc2ccc(S(=O)(=O)NC(=O)c3ccc(N4CCN(CC5=C(c6ccc(Cl)cc6)CC(C)(C)CC5)CC4)cc3Oc3cnc4[nH]ccc4c3)cc2[N+](=O)[O-])CC1 (centres unmarked) [Example 61, methyl(4-(((4-(N-(2-((1H-pyrrolo[2,3-b]pyridin-5-yl)oxy)-4-(4-((4′-chloro-5,5-dimethyl-3,4,5,6-tetrahydro-[1,1′-biphenyl]-2-yl)methyl)piperazin-1-yl)benzoyl)sulfamoyl)-2-nitrophenyl)amino)methyl)-1-oxidotetrahydro-2H-1λ^6-thiopyran-1-ylidene) carbamate]	161		
106	CCN=S1(=O)CCN(CCNc2ccc(S(=O)(=O)NC(=O)c3ccc(N4CCN(CC5=C(c6ccc(Cl)cc6)CC(C)(C)CC5)CC4)cc3Oc3cnc4[nH]ccc4c3)cc2[N+](=O)[O-])CC1 [Example 34, 2-((1H-pyrrolo[2,3-b]pyridin-5-yl)oxy)-4-(4-((4′-chloro-5,5-dimethyl-3,4,5,6-tetrahydro-[1,1′-biphenyl]-2-yl)methyl)piperazin-1-yl)-A,-((4-((2-(1-(ethylimino)-1-oxido-1λ^6-thiomorpholino)ethyl)amino)-3-nitrophenyl)sulfonyl) benzamide]	38		
21	COC(=O)N=S1(=O)CCN(C[C@H](C)Nc2ccc(S(=O)(=O)NC(=O)c3ccc(N4CCN(CC5=C(c6ccc(Cl)cc6)CC(C)(C)CC5)CC4)cc3Oc3cnc4[nH]ccc4c3)cc2[N+](=O)[O-])CC1 [Example 44, methyl (S)-(4-(2-((4-(N-(2-((1H-pyrrolo[2,3-b]pyridin-5-yl)oxy)-4-(4-((4′-chloro-5,5-dimethyl-3,4,5,6-tetrahydro-[1,1′-biphenyl]-2-yl)methyl)piperazin-1-yl)benzoyl)sulfamoyl)-2-nitrophenyl)amino)propyl)-1-oxido-1λ^6-thiomorpholin-1-ylidene) carbamate]	20		
102	COC(=O)N=S1(=O)CCN(CCNc2ccc(S(=O)(=O)NC(=O)c3ccc(N4CCN(CC5=C(c6ccc(Cl)cc6)CC(C)(C)CC5)CC4)cc3Oc3cnc4[nH]ccc4c3)cc2[N+](=O)[O-])CC1 [Example 43, methyl (4-(2-((4-(N-(2-((1H-pyrrolo[2,3-b]pyridin-5-yl)oxy)-4-(4-((4′-chloro-5,5-dimethyl-3,4,5,6-tetrahydro-[1,1′-biphenyl]-2-yl)methyl)piperazin-1-yl)benzoyl)sulfamoyl)-2-nitrophenyl)amino)ethyl)-1-oxido-1λ^6-thiomorpholin-1-ylidene) carbamate]	271		
